Results: paper PMC7373994 (2020)
Values belong to the compound of their own block, whether it stands above or below them.

Columns and labels:
Test in all cases: in-line probing
[1] = tested on: 53 tauA (RNA, riboswitch) GGAGAGUGAGUAGAAGCGGUCAGUGCAGGCAGCUGCGCGGGACAUUGCUCAGCAA; conditions: 100 mM KCl, 20 mM MgCl2, 100 mM Tris-HCl pH 8.3, 19°C; for KD: apparent; for binding: tested up to 1 mM, 53 or 68 tauA construct not specified
[2] = tested on: 68 tauA M2 (G38C) (RNA, riboswitch) GGAGAGUGAGUAGAAGCGGUCAGUGCAGGCAGCUGCGCGCGACAUUGCUCAGCAACCAUUUCGCGGUUCA; conditions: 100 mM KCl, 20 mM MgCl2, 100 mM Tris-HCl pH 8.3, 19°C
[3] = tested on: 68 tauA M1 (A12U) (RNA, riboswitch) GGAGAGUGAGUAGUAGCGGUCAGUGCAGGCAGCUGCGCGGGACAUUGCUCAGCAACCAUUUCGCGGUUCA; conditions: 100 mM KCl, 20 mM MgCl2, 100 mM Tris-HCl pH 8.3, 19°C
[4] = tested on: 68 tauA M3 (G6C, A7U) (RNA, riboswitch) GGAGAGUCUGUAGAAGCGGUCAGUGCAGGCAGCUGCGCGGGACAUUGCUCAGCAA; conditions: 100 mM KCl, 20 mM MgCl2; 100 mM Tris-HCl pH 8.3, 19°C
[5] = tested on: 68 tauA (RNA, riboswitch) GGAGAGUGAGUAGAAGCGGUCAGUGCAGGCAGCUGCGCGGGACAUUGCUCAGCAACCAUUUCGCGGUUCA; conditions: 100 mM KCl, 20 mM MgCl2; 100 mM Tris-HCl pH 8.3, 19°C; qualitative, wild type compared with mutants

Compound: O=c1[nH]c(=O)c2[nH]cnc2[nH]1
KD ([1]; 36 h, two repeats): ~ 3.7 µM | binding ([2]; artifact modulation at highest concentration): no | binding [3]: no | binding [4]: no | binding [5]: yes

Compound: O=c1[nH]c(=O)c2[nH]c(=O)[nH]c2[nH]1
KD ([1]; Figure S2C legend prints 4.3 µM instead): ~ 25 µM | binding ([2]; tested up to 1000 µM): no | binding ([3]; tested up to 1000 µM): no

Compound: Cn1c(=O)[nH]c2[nH]c(=O)[nH]c(=O)c21
binding [1]: no

Compound: O=c1[nH]cnc2c1ncn2[C@@H]1O[C@H](CO)[C@@H](O)[C@H]1O
binding [1]: no

The remaining lines, values ahead:

binding [1]: no
Compound: Cn1c(=O)[nH]c(=O)c2[nH]c(=O)[nH]c21

binding [1]: no
Compound: Cn1c(=O)[nH]c2c(=O)[nH]c(=O)[nH]c21
